Experimental data: US4900815A, “Sulfated polysaccharide DS4152” (Daiichi Seiyaku Co., Ltd., priority 1986, dated 1990)
Where a name gives a salt, the structure may show the parent alone.

How the values were obtained:
[1] = system: angiogenesis of the chick CAM; assay: CAM angiogenesis inhibition, various steroids alone or with DS4152; type: in vivo; settings: for degree of increase: ID50 alone vs. in the presence of 10 ng of DS4152; for ID50, used in combination with DS4152: in the presence of 10 ng of DS4152; for ID50, alone: steroid alone
[2] = system: vascularization in chorioallantoic membrane (CAM) of chick embryo, rabbit cornea and hamster cheek pouches; settings: cited from earlier work
CAM angiogenesis [3] = assay: CAM Angiogenesis Inhibition Test (Direct Method), antiestrogens with or without DS4152; type: in vivo, chick
Method: (§1) Using chick embryos, a test was carried out in accordance with the following method, which was a partial modification of the Taylor-Folkman'smethod Nature, 297, 307 (1982)].
(§2) Either DS4152 or heparin dissolved in physiological saline was added to the CAM of each 4-5 day old fertilized chicken 1 egg (species: NORIN CROSS) and then the eggs were incubated at 37° C.
(§3) Two days after the addition of the agent, the degree of the CAM vascularization was compared with that of a control to which physiological saline was only added. The 50% vascularization inhibition dose (ID50) was calculated by the probit method.
(§4) A test was conducted in the same manner as in Example 2. Antiestrogens were separately dissolved or suspended in physiological saline and were added either alone or together with DS4152. The eggs with the agents were incubated at 37° C. Two days after the addition of the agents, the degrees of development of CAM vessels were individually compared with that of a control to which physiological saline was only added.

[4] = system: CAM vascularization of chick embryos; assay: CAM Angiogenesis Inhibition Test (Direct Method), combination with cortisone acetate; type: in vivo; settings: 0.5 μg per embryo, alone
Method: as §1, §2, §3
In the same manner as in Example 2, combination effects of a steroid and DS4152 were examined. […] The activities of DF4639 and H Fraction were also investigated in the comparison with that of DS4152.

CAM vascularization = assay: Antiangiogenic Effects (Ex Vivo) of steroids with or without DS4152; set-up: species or system chick (blood from male ICR mice); settings: steroid p.o. 5 mg/kg
Method: Male ICR mice were orally administered with a solution of DS4152 dissolved in physiological saline. A saline suspension of a steroid was administered orally or intramuscularly, either in combination with DS4152 or alone. Blood samples collected after 6 hours were prevented from coagulation with a 0.313% aqueous solution of sodium citrate. Each blood sample was added to the 5 day CAM in the same manner as in the direct method. The inhibitory effects were judged after two days. Results were expressed by inhibition ratios (%) of CAM vascularization of each group to that of control group with a blood sample collected from the mice with saline. (Table 11).

Sarcoma 180 (S180) [5] = assay: Antitumor Test, Sarcoma 180, DS4152 and cortisone acetate; type: in vivo, mouse (male ICR)
Method: Male ICR mice (5 weeks old) were each inoculated subcutaneously with 1×10^6 cells of Sarcoma 180 (S180). From the 3rd day, a saline suspension of cortisone acetate was administered at a dose of 250 mg/kg/day for 3 days and then at a dose of 100 mg/kg/day for 1 day.
DS4152 was dissolved in physiological saline and administered at a dose of 0.61 or 6.1 mg/mouse subcutaneously or orally once a day for 4 days. On the 7th day after the inoculation, the mice were sacrificed to compare their tumor weights with those of the control mice.

CAM angiogenesis [6] = assay: CAM Angiogenesis Inhibition Test (Direct Method), DS4152 and heparins with tamoxifen citrate; type: in vivo, chick; settings: with tamoxifen citrate 1 μg
Method: as §1, §2, §3, §4

Sarcoma 180 (S180) [7] = assay: Antitumor Test, S180, tamoxifen citrate with DS4152 or heparins; type: in vivo, mouse (male ICR); settings: 300 mg/kg oral + tamoxifen citrate 100 mg/kg s.c.
Method: C3H/He male mice (5 weeks old) were each inoculated subcutaneously with 4×10^6 cells of mouse mammary carcinoma MM46. Mice were randomized after measuring the diameters of the resultant tumors on the 7th day. In addition, male ICR mice (5 weeks old) were each inoculated subcutaneously with 1×10^6 cells of Sarcoma 180 (S180). On the 3rd days, the mice were randomized. A saline suspension of tamoxifen citrate was administered once a day for 4 days to the MM46-bearing mice on the 7th day after inoculation and to the S180-bearing mice on the 3rd day after inoculation. DS4152 and heparins were individually dissolved in physiological saline and administered either orally or subcutaneously once a day for 4 days at a dose of 30 mg/kg/day or 300 mg/kg/day. On the 5th day after the beginning of the administration, the animals were sacrificed. The tumor weights were compared with those of the control mice administered only with physiological saline (Table 15).

breast cancer = settings: Oncologia, 10, 72 (1984); cited from earlier work
[8] = antiestrogen 1 μg, DS4152 0.01 μg
[9] = antiestrogen 10 μg, DS4152 0 μg
[10] = antiestrogen 10 μg, DS4152 0.01 μg
[11] = cortisone acetate alone, 250 then 100 mg/kg/day

Compound: C[C@]12CCC(=O)C=C1CC[C@@H]1[C@@H]2[C@@H](O)C[C@@]2(C)[C@H]1CC[C@]2(O)C(=O)CO [Hydrocortisone]
- degree of increase [1]: 6.9 times
- ID50, used in combination with DS4152 [1]: 0.16 μg/embryo
- ID50, alone [1]: 1.10 μg/embryo

Compound: C[C@@]12CCC[C@H]1[C@@H]1CC[C@H]3CCCC[C@]3(C)[C@H]1CC2 [5α-Androstane]
- degree of increase [1]: 8.0 times
- ID50, used in combination with DS4152 [1]: 0.29 μg/embryo
- ID50, alone [1]: 2.32 μg/embryo

Compound: C[C@]12C=CC(=O)C=C1CC[C@@H]1[C@@H]2[C@@H](O)C[C@@]2(C)[C@H]1CC[C@]2(O)C(=O)CO [Prednisolone]
- degree of increase [1]: 16.3 times
- ID50, used in combination with DS4152 [1]: 0.08 μg/embryo
- ID50, alone [1]: 1.30 μg/embryo
- suppression of experimentally induced vascularization [2]: effective

Compound: CCN(CC)CCOc1ccc(C(=C(Cl)c2ccccc2)c2ccccc2)cc1 [Clomiphene citrate]
- percent inhibition of CAM vascularization (CAM angiogenesis [3]; antiestrogen 1 μg, DS4152 0 μg): -3.9%
- percent inhibition of CAM vascularization (CAM angiogenesis [3]; [8]): 32.6%
- percent inhibition of CAM vascularization (CAM angiogenesis [3]; [9]): -11.4%
- percent inhibition of CAM vascularization (CAM angiogenesis [3]; [10]): 42.0%

Compound: CC(=O)OCC(=O)[C@@]1(O)CC[C@H]2[C@@H]3CCC4=CC(=O)CC[C@]4(C)[C@H]3C(=O)C[C@@]21C [Cortisone acetate]
- influence on vascularization [4]: not to give any influence to the vascularization
- degree of increase [1]: 7.1 times
- ID50, used in combination with DS4152 [1]: 0.17 μg/embryo
- ID50, alone [1]: 1.20 μg/embryo
- Inhibition rate of angiogenesis (CAM vascularization; DS4152 0): 7.7%
- Inhibition rate of angiogenesis (CAM vascularization; DS4152 30 mg/kg p.o.): 75.1%
- T/C (Sarcoma 180 (S180) [5]; [11]): 94.2%
- Tumor weight, mean ± standard error (Sarcoma 180 (S180) [5]; [11]): 0.340 ± 0.162
- tumor weight compared with saline group (Sarcoma 180 (S180) [5]; cortisone acetate only): not different

Compound: CC(=O)[C@H]1CC[C@H]2[C@@H]3CCC4=CC(=O)CC[C@]4(C)[C@H]3CC[C@]12C [Progesterone]
- degree of increase [1]: 2.1 times
- ID50, used in combination with DS4152 [1]: 0.49 μg/embryo
- ID50, alone [1]: 1.02 μg/embryo

Compound: COc1ccc2c(c1)CCC(c1ccccc1)=C2c1ccc(OCCN2CCCC2)cc1 [Nafoxidine chloride]
- percent inhibition of CAM vascularization (CAM angiogenesis [3]; antiestrogen 1 μg, DS4152 0 μg): -4.3%
- percent inhibition of CAM vascularization (CAM angiogenesis [3]; [8]): 23.1%
- percent inhibition of CAM vascularization (CAM angiogenesis [3]; [9]): -3.2%
- percent inhibition of CAM vascularization (CAM angiogenesis [3]; [10]): 31.6%

Compound: low molecular weight heparin
- 50% vascularization inhibition dose (CAM angiogenesis [6]): 1.37 µg
- T/C (Sarcoma 180 (S180) [7]): 66%
- Tumor weight, mean ± S.D. (Sarcoma 180 (S180) [7]; p < 0.05): 202 ± 22 mg

Compound: C[C@]1(O)CC[C@H]2[C@@H]3CCC4=CC(=O)CC[C@]4(C)[C@@]3(F)[C@@H](O)C[C@@]21C [Fluoxymesterone]
- degree of increase [1]: 10.3 times
- ID50, used in combination with DS4152 [1]: 0.12 μg/embryo
- ID50, alone [1]: 1.24 μg/embryo
- effectivity (anti-breast cancer) (breast cancer): 20-30%
